Earlier results in patent US12409121B2, “Formulations and methods for preparing stable cosmetic compositions” (Spinart, LLC, priority 2019, dated 2025).

Structure (SMILES): N=C(N)NCCCC(N)C(=O)O (centres unmarked) [Arginine]
- α-CO2H pKa1 (carboxylic group): 2.18
- α-NH3 pKa2 (α-amino group): 9.09
